Test results taken from ChEMBL document CHEMBL5143550, “Thiol- and Disulfide-Containing Vancomycin Derivatives Against Bacterial Resistance and Biofilm Formation” (2021).
≈ marks a conversion by molar mass, not a printed value.

Tests used:
Assay type in all cases: functional
Staphylococcus aureus [1] = assay: Antibacterial activity against Staphylococcus aureus ATCC 25923 assessed as inhibition of bacterial growth by standard broth microdilution susceptibility method
Staphylococcus aureus [2] = assay: Antibacterial activity against methicillin-resistant Staphylococcus aureus ATCC 43300 assessed as inhibition of bacterial growth by standard broth microdilution susceptibility method
Enterococcus faecalis [3] = assay: Antibacterial activity against VanB-resistant Enterococcus faecalis ATCC 51299 assessed as inhibition of bacterial growth by standard broth microdilution susceptibility method
Enterococcus gallinarum [4] = assay: Antibacterial activity against VanC-resistant Enterococcus gallinarum ATCC 700221 assessed as inhibition of bacterial growth by standard broth microdilution susceptibility method
Staphylococcus aureus [5] = assay: Potency index, ratio of vancomycin MIC to test compound MIC for antibacterial activity against vancomycin-intermediate Staphylococcus aureus ATCC NRS1 assessed as inhibition of bacterial growth by standard broth microdilution susceptibility method
Staphylococcus aureus [6] = assay: Potency index, ratio of vancomycin MIC to test compound MIC for antibacterial activity against heterogenous vancomycin-intermediate Staphylococcus aureus ATCC NRS24 assessed as inhibition of bacterial growth by standard broth microdilution susceptibility method
Enterococcus faecium [7] = assay: Potency index, ratio of vancomycin MIC to test compound MIC for antibacterial activity against VanA-resistant Enterococcus faecium MMX0485 assessed as inhibition of bacterial growth by standard broth microdilution susceptibility method
Enterococcus faecalis [8] = assay: Potency index, ratio of vancomycin MIC to test compound MIC for antibacterial activity against VanB-resistant Enterococcus faecalis ATCC 51299 assessed as inhibition of bacterial growth by standard broth microdilution susceptibility method
Enterococcus gallinarum [9] = assay: Potency index, ratio of vancomycin MIC to test compound MIC for antibacterial activity against VanC-resistant Enterococcus gallinarum ATCC 700221 assessed as inhibition of bacterial growth by standard broth microdilution susceptibility method
Enterococcus faecalis [10] = assay: Antibiofilm activity against VanB-resistant Enterococcus faecalis ATCC 51299 assessed as inhibition of biofilm formation in BHIG medium incubated for 24 hrs by resazurin assay
Enterococcus faecalis [11] = assay: Antibiofilm activity against VanB-resistant Enterococcus faecalis ATCC 51299 assessed as inhibition of biofilm formation by measuring decrease in RFU in BHIG medium incubated for 24 hrs by resazurin assay
Enterococcus faecalis [12] = assay: Antibacterial activity against VanB-resistant Enterococcus faecalis ATCC 51299 assessed as inhibition of colony formation in BHIG medium incubated for 24 hrs by resazurin assay
Enterococcus faecalis [13] = assay: Antibacterial activity against VanB-resistant Enterococcus faecalis ATCC 51299 assessed as inhibition of bacterial growth in BHIG medium incubated for 24 hrs by resazurin assay
Enterococcus faecalis [14] = assay: Antibiofilm activity against VanB-resistant Enterococcus faecalis ATCC 51299 assessed as inhibition of biofilm formation in BHIG medium incubated for 24 hrs by resazurin assay relative to vancomycin
Staphylococcus aureus [15] = assay: Antibacterial activity against vancomycin-intermediate Staphylococcus aureus ATCC NRS1 assessed as inhibition of bacterial growth by standard broth microdilution susceptibility method
Staphylococcus aureus [16] = assay: Antibacterial activity against heterogenous vancomycin-intermediate Staphylococcus aureus ATCC NRS24 assessed as inhibition of bacterial growth by standard broth microdilution susceptibility method
Enterococcus faecium [17] = assay: Antibacterial activity against VanA-resistant Enterococcus faecium MMX0485 assessed as inhibition of bacterial growth by standard broth microdilution susceptibility method
Streptococcus pneumoniae = assay: Antibacterial activity against […] assessed as inhibition of bacterial growth by standard broth microdilution susceptibility method
Clostridioides difficile = assay: Antibacterial activity against Clostridium difficile ATCC 43255 assessed as inhibition of bacterial growth by standard broth microdilution susceptibility method
Moraxella catarrhalis = assay: Antibacterial activity against Moraxella catarrhalis ATCC 8193 assessed as inhibition of bacterial growth by standard broth microdilution susceptibility method

CN[C@H](CC(C)C)C(=O)N[C@H]1C(=O)N[C@@H](CC(N)=O)C(=O)N[C@H]2C(=O)N[C@H]3C(=O)N[C@H](C(=O)N[C@H](C(=O)NCCSSCCNC(=O)CCSC(c4ccccc4)(c4ccccc4)c4ccccc4)c4cc(O)cc(O)c4-c4cc3ccc4O)[C@H](O)c3ccc(c(Cl)c3)Oc3cc2cc(c3O[C@@H]2O[C@H](CO)[C@@H](O)[C@H](O)[C@H]2O[C@H]2C[C@](C)(N)[C@H](O)[C@H](C)O2)Oc2ccc(cc2Cl)[C@H]1O
MIC (Staphylococcus aureus [1]): 8 µg/mL (≈ 4.18 µM) | MIC (Staphylococcus aureus [2]): 4 µg/mL (≈ 2.09 µM) | MIC (Enterococcus faecalis [3]): 2 µg/mL (≈ 1.04 µM) | MIC (Enterococcus gallinarum [4]): 1 µg/mL (≈ 0.522 µM) | Ratio (Staphylococcus aureus [5]): 8 | Ratio (Staphylococcus aureus [6]): 8 | Ratio (Enterococcus faecium [7]): 8 | Ratio (Enterococcus faecalis [8]): 8 | Ratio (Enterococcus gallinarum [9]): 8 | MBIC (Enterococcus faecalis [10]): 2 µg/mL | inhibition (INH) (Enterococcus faecalis [11]): 97% | Activity (Enterococcus faecalis [12]): 2 µg/mL | inhibition (INH) (Enterococcus faecalis [13]): 100% | Ratio (Enterococcus faecalis [14]): 32

CN[C@H](CC(C)C)C(=O)N[C@H]1C(=O)N[C@@H](CC(N)=O)C(=O)N[C@H]2C(=O)N[C@H]3C(=O)N[C@H](C(=O)N[C@H](C(=O)NCCSSCC[N+](C)(C)C)c4cc(O)cc(O)c4-c4cc3ccc4O)[C@H](O)c3ccc(c(Cl)c3)Oc3cc2cc(c3O[C@@H]2O[C@H](CO)[C@@H](O)[C@H](O)[C@H]2O[C@H]2C[C@](C)(N)[C@H](O)[C@H](C)O2)Oc2ccc(cc2Cl)[C@H]1O
MIC (Staphylococcus aureus [1]): 1 µg/mL | MIC (Staphylococcus aureus [2]): 0.5 µg/mL | MIC (Staphylococcus aureus [15]): 0.5 µg/mL | MIC (Staphylococcus aureus [16]): > 32 µg/mL | MIC (Enterococcus faecium [17]): 32 µg/mL | MIC (Enterococcus faecalis [3]): 16 µg/mL | MIC (Enterococcus gallinarum [4]): 4 µg/mL | MIC (Streptococcus pneumoniae): 0.25 µg/mL | MIC (Clostridioides difficile): ≤ 0.015 µg/mL | MIC (Moraxella catarrhalis): 2 µg/mL | Ratio (Enterococcus faecium [7]): 8 | Ratio (Enterococcus faecalis [8]): 8 | Ratio (Enterococcus gallinarum [9]): 8 | MBIC (Enterococcus faecalis [10]): 16 µg/mL | inhibition (INH) (Enterococcus faecalis [11]): 91% | Activity (Enterococcus faecalis [12]): 16 µg/mL | inhibition (INH) (Enterococcus faecalis [13]): 100%

CN[C@H](CC(C)C)C(=O)N[C@H]1C(=O)N[C@@H](CC(N)=O)C(=O)N[C@H]2C(=O)N[C@H]3C(=O)N[C@H](C(=O)N[C@H](C(=O)NCCSSCCCCCCCCCCC[N+](C)(C)C)c4cc(O)cc(O)c4-c4cc3ccc4O)[C@H](O)c3ccc(c(Cl)c3)Oc3cc2cc(c3O[C@@H]2O[C@H](CO)[C@@H](O)[C@H](O)[C@H]2O[C@H]2C[C@](C)(N)[C@H](O)[C@H](C)O2)Oc2ccc(cc2Cl)[C@H]1O
MIC (Staphylococcus aureus [1]): 1 µg/mL | MIC (Staphylococcus aureus [2]): 0.5 µg/mL | MIC (Staphylococcus aureus [15]): 0.25 µg/mL | MIC (Staphylococcus aureus [16]): 8 µg/mL | MIC (Enterococcus faecium [17]): 16 µg/mL | MIC (Enterococcus faecalis [3]): 2 µg/mL | MIC (Enterococcus gallinarum [4]): 2 µg/mL | MIC (Streptococcus pneumoniae): 0.12 µg/mL | MIC (Clostridioides difficile): 1 µg/mL | MIC (Moraxella catarrhalis): 1 µg/mL | Ratio (Enterococcus faecium [7]): 8 | Ratio (Enterococcus faecalis [8]): 8 | Ratio (Enterococcus gallinarum [9]): 8 | MBIC (Enterococcus faecalis [10]): 4 µg/mL | inhibition (INH) (Enterococcus faecalis [11]): 84% | Activity (Enterococcus faecalis [12]): 4 µg/mL | inhibition (INH) (Enterococcus faecalis [13]): 98% | Ratio (Enterococcus faecalis [14]): 16

CN[C@H](CC(C)C)C(=O)N[C@H]1C(=O)N[C@@H](CC(N)=O)C(=O)N[C@H]2C(=O)N[C@H]3C(=O)N[C@H](C(=O)N[C@H](C(=O)NCCCS)c4cc(O)cc(O)c4-c4cc3ccc4O)[C@H](O)c3ccc(c(Cl)c3)Oc3cc2cc(c3O[C@@H]2O[C@H](CO)[C@@H](O)[C@H](O)[C@H]2O[C@H]2C[C@](C)(N)[C@H](O)[C@H](C)O2)Oc2ccc(cc2Cl)[C@H]1O
MIC (Staphylococcus aureus [1]): 4 µg/mL (≈ 2.63 µM) | MIC (Staphylococcus aureus [2]): 4 µg/mL (≈ 2.63 µM) | MIC (Staphylococcus aureus [15]): 8 µg/mL (≈ 5.25 µM) | MIC (Staphylococcus aureus [16]): > 32 µg/mL | MIC (Enterococcus faecium [17]): 1 µg/mL (≈ 0.657 µM) | MIC (Enterococcus faecalis [3]): 4 µg/mL (≈ 2.63 µM) | MIC (Enterococcus gallinarum [4]): 1 µg/mL (≈ 0.657 µM) | MIC (Streptococcus pneumoniae): ≤ 0.03 µg/mL | MIC (Clostridioides difficile): 0.12 µg/mL (≈ 0.0788 µM) | MIC (Moraxella catarrhalis): 16 µg/mL (≈ 10.5 µM) | MBIC (Enterococcus faecalis [10]): 4 µg/mL | inhibition (INH) (Enterococcus faecalis [11]): 95% | Activity (Enterococcus faecalis [12]): 4 µg/mL | inhibition (INH) (Enterococcus faecalis [13]): 100% | Ratio (Enterococcus faecalis [14]): 16
